The series is described as follows: solvent given as SMILES.
Setting [1] is: in O=P(c1ccccc1)(c1ccccc1)c1ccccc1Oc1ccccc1P(=O)(c1ccccc1)c1ccccc1.

In the case of `CC[N+](CC)=c1ccc2nc3c(cc(NCCC(=O)NC(C)C(=O)OC)c4ccccc43)oc-2c1` (centres undefined), the emission maximum runs as follows: (in CCO) 672 nm; (in O) 684 nm.
As for `CCN(CC)c1ccc(-c2nc(Oc3ccc(-c4nc5ccccc5[nH]4)cc3)nc(Oc3ccc(-c4nc5ccccc5[nH]4)cc3)n2)cc1`, the emission maximum (in CN(C)C=O) worked out at 431 nm.
Take `O=c1oc2c(ccc3cc(O)ccc32)nc1-c1ccccc1`: the emission maximum (in c1ccccc1) is recorded as 487 nm.
In turn, `COc1cc2c(cc1OC)C1=C[C@H](c3ccccc3)C3(C(C(=O)O[C@@H]4C[C@H]5CC[C@@H]4C5)=C(C(=O)O[C@H]4C[C@@H]5CC[C@H]4C5)N1CC2)c1ccccc1-c1ccccc13` returned an emission maximum (in ClCCl) of 422 nm.
As to `Cc1cc(C)n2c1C=C1c3ccccc3C(c3[nH]c4ccccc4c3C)=[N+]1[B-]2(F)F`, the emission maximum runs as follows: (in C1CCOC1) 628 nm; (in CC#N) 623 nm; (in CCCCCC) 626 nm; (in CO) 624 nm; (in Cc1ccccc1) 636 nm; (in ClCCl) 631 nm.
Take `c1ccc2c(c1)c1ccccc1n2-c1ccc(-c2cc3ccc(-c4ccc5cc(-c6ccc(-n7c8ccccc8c8ccccc87)cc6)oc5c4)cc3o2)cc1`: the emission maximum stood at 407 nm (in Cc1ccccc1) and 419 nm (in c1ccc2c(c1)c1ccccc1n2-c1ccc(-c2ccc(-n3c4ccccc4c4ccccc43)cc2)cc1).
For the compound `Cn1c(=O)c(/N=N/c2cc(S(=O)(=O)O)ccc2S(=O)(=O)O)c(O)c2ccccc21`, the emission maximum is, setting by setting: (in C1CCOC1) 498 nm; (in CC(C)=O) 491 nm; (in CCOC(C)=O) 493 nm; (in CO) 483 nm; (in CS(C)=O) 490 nm; (in Cc1ccccc1) 490 nm. In addition, the emission maximum by setting is: (in ClCCl) 493 nm; (in O) 500 nm.
As for `C(#Cc1nccnc1C#Cc1ccccc1)c1ccccc1`, where the note is “in CC#N”, the emission maximum was 380 nm.
The compound `C(#Cc1ccc2ncsc2c1)c1ccc(N(c2ccccc2)c2ccccc2)cc1` gave an emission maximum (in Cc1ccccc1) of 428 nm.
Consider `c1ccc(-c2nc(-c3ccccc3)nc(-c3ccc(N4c5ccccc5C5(c6ccccc64)c4ccccc4C4(c6ccccc6-c6ccccc64)c4ccccc45)cc3)n2)cc1`, for which the emission maximum (in Cc1ccccc1) is 475.42 nm.
Where the note is “in CC#N”, `COC(=O)/C=C/c1sc(-c2ccc(N(C)C)cc2)cc1N` had an emission maximum of 609 nm.
Regarding `O=Cc1cc2c(cc3ccc4cccc5ccc2c3c45)[nH]1`, under “in CCOC(C)=O”, the emission maximum came to 438 nm.
For `O=C1c2ccccc2-c2nc3c4ccccc4c4ccccc4c3n21`, the emission maximum (in ClCCl) was 616 nm.
Compound `CCCCCCCCc1ccc(-c2ccc(-c3cc(-c4ccc(-c5ccc(CCCCCCCC)s5)c5nsnc45)c4ccc5c(-c6ccc(-c7ccc(CCCCCCCC)s7)c7nsnc67)cc(-c6ccc(-c7ccc(CCCCCCCC)s7)c7nsnc67)c6ccc3c4c65)c3nsnc23)s1` displayed an emission maximum (in ClC(Cl)Cl) of 541 nm.
`CCOC(=O)c1c(-c2cc3ccc(OCC=C(C)C)cc3oc2=O)nn(-c2ccccc2)c1C(=O)OCC` displayed an emission maximum (in ClCCl) of 425 nm.
For `Cc1ccccc1-c1c2ccc(=[N+]3CCN(C(=O)OC(C)(C)C)CC3)cc-2oc2cc(N3CCN(C(=O)OC(C)(C)C)CC3)ccc12`, the emission maximum is, setting by setting: (in CCO) 580 nm; (in ClCCl) 577 nm.
Under “in ClCCl”, `C(S/C=C/c1ccc(/C=C/SC=C2CCCCC2)cc1)=C1CCCCC1` registered an emission maximum of 421 nm.
On to `CC1(C)c2ccccc2N(c2ccc(-c3ncc(C#N)cn3)cc2)c2ccccc21`, for which the emission maximum worked out at 543 nm (in Cc1ccccc1) and 541 nm (in N#Cc1ccc2c(c1)c1ccccc1n2-c1cccc(-n2c3ccccc3c3ccccc32)c1).
For `COc1ccc(-c2cc3ccc4cc(-c5ccc(OC)cc5)cc5ccc(c2)c3c45)cc1`, the emission maximum amounted to 418.86 nm (in C1CCCCC1); 416.47 nm (in C1CCOC1); 414.88 nm (in CC#N); 417.26 nm (in CCCCCC); 416.27 nm (in CCO); 417.86 nm (in CN(C)C=O). Further, the emission maximum stood at 418.06 nm (in CO), 417.61 nm (in ClC(Cl)Cl) and 417.26 nm (in ClCCl).
Compound `C[Si]1(C)O[Si](C)(C)c2cc3c(-c4ccc(F)cc4)c4ccccc4nc3cc21` showed an emission maximum (in ClCCl) of 503 nm.
Same read-out and setting: with `CN(C)c1ccc(/C=C/c2cnc(C#Cc3ccc(C#N)cc3)o2)cc1` the figure was 515 nm.
`CC(C)(C)c1cc(/C2=C3\C=CC(=N3)/C(c3ccc(Br)cc3)=c3/cc/c([nH]3)=C(\c3ccc(Br)cc3)C3=N/C(=C(/c4cc(C(C)(C)C)cc(C(C)(C)C)c4)c4cc2c[nH]4)C=C3)cc(C(C)(C)C)c1` yielded an emission maximum (in CC(=O)N(C)C) of 716 nm.
As to `CC(C)(C)c1ccc2c(c1)c1cc(C(C)(C)C)cc3c1n2B1c2c-3cccc2-c2cc(C(C)(C)C)cc3c4cc(C(C)(C)C)ccc4n1c23`, the emission maximum (in C1CCOC1) was 384 nm.
As for `COC(=O)C(Cc1ccc2oc(-c3ccc(N(c4ccccc4)c4ccccc4)cc3)nc2c1)NC(=O)OC(C)(C)C` (centres undefined), the emission maximum is, setting by setting: (in C1CCCCC1) 395.25 nm; (in C1CCOC1) 447.04 nm; (in C1COCCO1) 436.75 nm; (in CC1CCCCC1) 395 nm; (in CC1COC(=O)O1) 474 nm; (in CC#N) 465.75 nm. Also, the emission maximum was determined as 456.17 nm (in CC(C)=O); 455.75 nm (in CC(C)O); 482.75 nm (in CC(O)CO); 392.75 nm (in CCCCCC); 394 nm (in CCCCCCCC); 454.75 nm (in CCCCCO). In addition, the emission maximum (in CCCCO) came out at 454.5 nm; the emission maximum (in CCO) was found to be 475.75 nm; the emission maximum (in CCOC(C)=O) was 448.75 nm; the emission maximum (in CN(C)C=O) is 461.75 nm; the emission maximum (in CO) turned out to be 486 nm; the emission maximum (in COCCOC) is 453.75 nm. Also, the emission maximum was 474.5 nm (in CS(C)=O); 445 nm (in ClC(Cl)Cl); 451.25 nm (in ClCCl); 461.25 nm (in N#Cc1ccccc1); 491.5 nm (in NC=O); 502.99 nm (in O). Besides, under “in OCC(F)(F)F”, the emission maximum amounted to 496.25 nm.
As for `Cc1cc(C)c(B(c2c(C)cc(C)cc2C)N2c3ccccc3C(C)(C)c3ccccc32)c(C)c1`, the emission maximum reads like this: (in C1CCCCC1) 533 nm; (in Cc1ccccc1) 558 nm; (in ClCCl) 580 nm.
In turn, `CC1(C)c2ccccc2N(c2ccccc2)c2ccc(-c3nc(-c4ccccc4)nc(-c4ccccc4)n3)cc21` returned an emission maximum (in Cc1ccccc1) of 430.68 nm and an emission maximum under setting [1] of 452 nm.
In the case of `c1ccc(-n2c3ccccc3c3cc(-c4cccc(-n5c6ccccc6c6ncccc65)c4)ccc32)cc1`, the emission maximum (in ClCCl) is recorded as 360 nm.
Take `c1ccc(-c2nc(-c3ccccc3)nc(-c3ccc(-n4c5ccccc5c5cc(-n6c7ccccc7c7ccccc76)ccc54)cc3)n2)cc1`: the emission maximum reads like this: (in Cc1ccccc1) 458 nm; under setting [1], 475 nm.
In turn, `COc1ccc(-n2c3ccccc3c3c(C)cc4ccccc4c32)cc1` showed an emission maximum (in ClCCl) of 367 nm.
Take `CCN(CC)c1ccc2cc(-c3ccc(S(C)(=O)=O)cc3)oc(=O)c2c1`: the emission maximum worked out at 487 nm (in CC(C)=O); 419 nm (in CCCCCC); 476 nm (in CCCCO); 480 nm (in CCCO); 485 nm (in CCO); 465 nm (in CCOC(C)=O). The emission maximum is given as 499 nm (in CN(C)C=O), 489 nm (in CO) and 456 nm (in ClC(Cl)Cl).
`O=[N+]([O-])c1ccc([N+]2=CC3=C(O[B-]2(F)F)c2ccccc2SC3)cc1`: the emission maximum (in ClCCl) was 575 nm.
For the compound `COc1ccc(N(c2ccc(/C=C(\C)c3ccccc3)cc2)c2ccc(/C=C(\C)c3ccccc3)cc2)cc1`, the emission maximum (in Cc1ccccc1) is recorded as 435 nm.
The compound `CCCCC1(CCCC)c2cc(C#Cc3ccc(C=C4c5ccccc5CCc5ccccc54)cc3)ccc2-c2ccc(C#Cc3ccc(C=C4c5ccccc5CCc5ccccc54)cc3)cc21` returned an emission maximum (in C1CCOC1) of 406 nm.
Regarding `O=c1cc2cc(O)c3cc(O)cc4ccc(o1)c2c43`, the emission maximum (in CC1CCCO1) stood at 483 nm.
Turning to `O=C(O)CCCc1ccc2ccc3cccc4ccc1c2c34`, for the setting “in CO”, the emission maximum worked out at 375 nm.
`COc1ccc(-c2ccc(/C=C/c3ccncn3)cc2)cc1` displayed an emission maximum (in ClCCl) of 447 nm.
For the compound `CC1(C)C(=O)C=Cc2ccc(N3CCC3)cc21`, the emission maximum (in O) worked out at 555 nm.
Regarding `CCn1c2ccccc2c2cc3c(cc21)c1ccccc1n3CC`, under “in ClC(Cl)Cl”, the emission maximum was found to be 425 nm.
In the case of `COc1ccc(/C=C/c2cc(/C=C/c3ccc(OC)cc3)nc(/C=C/c3ccc(C(F)(F)F)cc3)n2)cc1`, the emission maximum is listed as 436 nm (in C1CCOC1); 463 nm (in CC#N); 452 nm (in CC(C)=O); 398 nm (in CCCCCCC); 475 nm (in CS(C)=O); 411 nm (in Cc1ccccc1). In addition, for the setting “in ClCCl”, the emission maximum is 441 nm.
Compound `COc1ccc(C2=C(c3ccc([N+](=O)[O-])cc3)C(c3ccccc3)=[N+]3C2=Nc2c(-c4ccc(OC)cc4)c(-c4ccc([N+](=O)[O-])cc4)c(-c4ccccc4)n2[B-]3(F)F)cc1` showed an emission maximum (in Cc1ccccc1) of 688 nm.
Where the note is “in O”, `Cc1cn(C)c(=O)nc1-n1cncn1` returned an emission maximum of 389 nm.
In turn, `COC(=O)C1(C(=O)OC)Cc2c(C#Cc3ccc(OC)cc3)c(-c3ccc(OC)cc3)c3c(-c4ccccc4)c(-c4ccccc4)c(-c4ccccc4)c(-c4ccccc4)c3c2C1` displayed an emission maximum (in C1CCOC1) of 421.77 nm.
As to `F[B-]1(F)n2c(Cl)c(Cl)c(Br)c2C(Cl)=C2C(Br)=C(Cl)C(Cl)=[N+]21`, under “in ClCCl”, the emission maximum worked out at 560 nm.

The values above are taken from the Deep4Chem optical property database.
